The test system of data set [1] is HUVEC. The data set can be described thus: Transwell cell invasion experiment. The class given is cell-based, human. Particulars: 0.1 µM to 10 µM, concentration-dependent. The procedure: The upper surface of Transwell membrane was precoated with 40 µL Matrigel gel and incubated for 45 min at 37 °C for gelling. Then, cells were trypsinized and seeded at 6х10^4 per upper chamber, and cultured in 1% foetal bovine serum medium containing different concentrations of compounds. The chamber was then placed in a 24-well plate to which 10% FBS had been added. After 48 h incubation at 37 °C, both chambers were washed with PBS three times, and then fixed with 4% paraformaldehyde for 15 min, followed by staining with crystal violet. The non-invasive cells on the upper surface membrane were wiped with cotton swabs. The image of the cells on the bottom face was recorded and quantified under an inverted microscope. The results were the means calculated from three replicates of each experiment.[37]

Data set [2] deals with T1, Tubulin isolated from porcine brain tissue (Sus scrofa, UniProt P02550+P02554).
T1 construct: purchased Cytoskeleton (Denver, CO), via Beyotime, China; host or cells: porcine brain tissue
The data set can be described thus: Tubulin polymerisation assay. Particulars: triplicate, mean ± SD; read-out: Tubulin (tubulin inhibitory polymerisation IC50). The format is biochemical. The procedure: Tubulin polymerisation was determined with the tubulin polymerisation assay kit (Cytoskeleton, Denver, CO which was purchased from Cytoskeleton, Beyotime, China. Tubulin isolated from porcine brain tissue was used in this commercial kit.) It is based on the principal that light is scattered by microtubules to an extent that is proportional to the concentration of the microtubule polymer. Compounds that interact with tubulin will alter the polymerisation of tubulin, and this can be detected using a spectrophotometer. Tubulin polymerisation dynamics was monitored through measuring the change of absorbance at 340 nm every 2 min for 30 min at 37 °C on a spectrophotometer.

In data set [3] the test system is HL60. The data set can be described thus: CCK-8 assay, HL60. Particulars: Homo sapiens, HL-60; leukaemia, APL; CCK-8, 72 h. The format is cell-based. As for the experimental part:
(§1) Cells were seeded in 96-well plates at a density of 8 × 10^3 per well and exposed to different concentrations of compounds for 72 h. Subsequently, 10 µL CCK8 solution was added to each well and co-incubated for another 3–4 h at 37 °C. The absorbance was determined at 450 nm. Data was calculated with GraphPad Prism5 software.[32]
In general terms: Tetrazolium dyes change colour on reduction, which living cells bring about.

The test system of data set [4] is HuT 78. The data set can be described thus: CCK-8 assay, HuT 78. The format is cell-based. Particulars: Homo sapiens, HuT78; leukaemia, ALL; CCK-8, 72 h. The procedure: as §1
For data set [5], the system named is CCRF-CEM. The data set can be described thus: CCK-8 assay, CCRF-CEM. Particulars: Homo sapiens, leukaemia, ALL, CCK-8, 72 h. The class given is cell-based. As for the experimental part: as §1
In data set [6] the target is T2, tubulin colchicine binding site (Sus scrofa, UniProt P02550+P02554).
T2 construct: purchased Cytoskeleton, Inc
The data set can be described thus: [3H]colchicine-tubulin binding assay. Particulars: compared with the positive control CA-4; Figure 4D. The procedure: One micromolar radiolabeled colchicine [ring C, Methoxy-3H] (Perkin-Elmer), 1% DMSO and various concentrations of test compounds in 50 µL G-PEM buffer containing 80 mmol/L PIPES (pH 6.8), 1 mmol/L EGTA, 1 mmol/L MgCl2 and 1 mmol/L GTP, and 5% glycerol were incu-bated with […] (> 99% pure; Cytoskeleton, Inc.; 0.2 mg/mL) at 37 °C for 60 min. The binding solutions were filtered through a stack of 2 DEAE-cellulose filters and washed twice. The radioactivity in the […] was determined by liquid scintillation spectrometry (Perkin-Elmer Wallac). Nonlinear regression was used to analyse the data using GraphPad Prism.

The test system of data set [7] is leukaemia cell lines. The data set can be described thus: Anti-proliferation against a variety of leukaemia cell lines (CCK-8). The class given is cell-based. Particulars: seven leukaemia cell lines; read-out: IC50 against a variety of leukaemia cell lines (range over panel). As for the experimental part: as §1
Data set [8] concerns MV4-11. The data set can be described thus: CCK-8 assay, MV4-11. Particulars: Homo sapiens, leukaemia, AML, CCK-8, 72 h. The format is cell-based. As for the experimental part:
as §1

Data set [9] can be described thus: Preliminary cytotoxicity study on zebrafish embryos. Particulars: zebrafish, in vivo.
For data set [10], the system named is zebrafish embryos. The data set is described as above. Particulars: at the concentration of 6 µM.
For data set [11], the system named is HUVEC. The data set can be described thus: Wound healing migration assay. The format is cell-based, human. Particulars: 0.1, 1 and 10 µM.

T1 sequence (P02554 whole entry): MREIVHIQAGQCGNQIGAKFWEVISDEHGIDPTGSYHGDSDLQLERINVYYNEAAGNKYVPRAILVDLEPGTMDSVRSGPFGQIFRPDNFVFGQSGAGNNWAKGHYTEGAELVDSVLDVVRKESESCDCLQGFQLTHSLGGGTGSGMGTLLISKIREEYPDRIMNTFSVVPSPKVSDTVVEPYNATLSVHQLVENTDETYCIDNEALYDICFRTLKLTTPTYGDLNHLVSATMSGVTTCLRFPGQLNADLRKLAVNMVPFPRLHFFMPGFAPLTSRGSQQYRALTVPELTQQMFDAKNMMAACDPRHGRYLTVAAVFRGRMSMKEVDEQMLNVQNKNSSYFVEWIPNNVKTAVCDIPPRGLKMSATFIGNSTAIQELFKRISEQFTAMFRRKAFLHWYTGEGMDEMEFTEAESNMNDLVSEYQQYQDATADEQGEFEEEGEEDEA
T1 sequence (P02550 whole entry): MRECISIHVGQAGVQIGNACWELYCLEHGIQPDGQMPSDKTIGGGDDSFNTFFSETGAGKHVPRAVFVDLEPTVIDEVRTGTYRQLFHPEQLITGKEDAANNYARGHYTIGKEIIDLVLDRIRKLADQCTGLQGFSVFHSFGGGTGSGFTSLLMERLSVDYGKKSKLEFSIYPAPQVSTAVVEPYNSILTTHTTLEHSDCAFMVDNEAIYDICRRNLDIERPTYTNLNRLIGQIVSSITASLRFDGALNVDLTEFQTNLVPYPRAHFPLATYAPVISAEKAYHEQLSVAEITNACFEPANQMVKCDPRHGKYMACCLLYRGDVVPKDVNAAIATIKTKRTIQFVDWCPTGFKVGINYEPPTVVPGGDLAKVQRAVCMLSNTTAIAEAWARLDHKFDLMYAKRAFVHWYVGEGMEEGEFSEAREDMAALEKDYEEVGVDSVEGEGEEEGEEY
T2 sequence (P02554 whole entry): as the sequence (P02554 whole entry) above
T2 sequence (P02550 whole entry): as the sequence (P02550 whole entry) above

What is called IC50 is the concentration that gives 50% inhibition. Take `COc1cc(C(=O)/C=C/c2cn(S(=O)(=O)c3ccccc3)c3ccccc23)cc(OC)c1OC` [Compound 29e, (E)-3–(1-(Phenylsulfonyl)-1H-indol-3-yl)-1–(3,4,5-trimethoxyphenyl)prop-2-en-1-one]: the “HUVEC invasion (Transwell)” value in data set [1] was “the number of HUVEC invasion decreased”. Further, the IC50 in data set [2] is 4800 ± 700 nM; in data set [3] it was 180 ± 2 nM; in [4], 260 ± 110 nM; in data set [5], 840 ± 80 nM; in data set [7] it was 90 to 1220 nM; in data set [8] it was 250 ± 20 nM. This compound also displayed an IC50 in data set [9] of 44600 nM. In addition, the “Effect on tubulin binding of [3H]colchicine” value in data set [6] is “efficiently bound to the [^3H]colchicine binding domain of tubulin”. Also, the “toxicity on zebrafish embryos” value in [10] is reported as “did not cause the toxicity”. For the same compound, the “HUVEC wound closure / migration” value in [11] is on record as “markedly decreased the closure of wound scratching”.

The record behind these values is PMC8820799, “Angiogenesis and anti-leukaemia activity of novel indole derivatives as potent colchicine binding site inhibitors” (Journal of Enzyme Inhibition and Medicinal Chemistry, 2022).
